Measured values reported in patent publication US11274083B2, “Substituted thiophenyl uracils, salts thereof and the use thereof as herbicidal agents” (Syngenta Crop Protection AG, priority 2017, dated 2022).

Assays:
Format in all cases: in vivo
[1] = tested on: Pharbitis purpurea; assay: Herbicidal action post-emergence, greenhouse pot test; settings: application rate 80 g/ha
Protocol: (§1) Seeds of mono- and dicotyledonous weed plants and crop plants were laid out in sandy loam soil in plastic or wood-fiber pots, covered with soil and grown under controlled growth conditions in a greenhouse. 2 to 3 weeks after sowing, the trial plants were treated at the one-leaf stage. The compounds of the invention formulated in the form of wettable powders (WP) or as emulsion concentrates (EC) were then sprayed onto the green parts of the plant as an aqueous suspension or emulsion with addition of 0.5% additive at a water application rate equivalent to 600 L/ha. After the trial plants had stood for about 3 weeks in the greenhouse, under optimal growth conditions, the effect of the preparations was scored visually by comparison with untreated controls. For example, 100% efficacy=plants have died, 0% efficacy=like control plants. Tables A1 to A16 below show the efficacies of selected compounds of the general formula (I) according to tables I.1 to I.50 on various harmful plants and an application rate corresponding to 80 g/ha or lower that were obtained by the aforementioned trial method.

[2] = tested on: Amaranthus retroflexus; assay: as above
Protocol: as §1

[3] = tested on: Stellaria media; assay: as above; settings: application rate 80 g/ha
Protocol: as §1

[4] = tested on: Abutilon theophrasti; assay: as above; settings: application rate 80 g/ha
Protocol: as §1

[5] = tested on: Veronica persica; assay: as above; settings: application rate 80 g/ha
Protocol: as §1

[6] = tested on: Matricaria inodora; assay: as above; settings: application rate 80 g/ha
Protocol: as §1

[7] = tested on: Polygonum convolvulus; assay: as above; settings: application rate 80 g/ha
Protocol: as §1

[8] = tested on: Lolium rigidum; assay: as above; settings: application rate 80 g/ha
Protocol: as §1

[9] = tested on: Echinochloa crus-galli; assay: as above; settings: application rate 80 g/ha
Protocol: as §1

[10] = tested on: Viola tricolor; assay: as above
Protocol: as §1

[11] = tested on: Setaria viridis; assay: as above
Protocol: as §1

[12] = tested on: Zea mays; assay: Crop compatibility post-emergence, greenhouse pot test
Protocol: as §1, with “plants.” for “plants. Tables A1 to A16 below show the efficacies of selected compounds of the general formula (I) according to tables I.1 to I.50 on various harmful plants and an application rate corresponding to 80 g/ha or lower that were obtained by the aforementioned trial method.”
(§2) Crop plant compatibilities were also scored correspondingly.
(§3) The effects observed are reported here on selected crop plants by comparison, with the untreated controls (values in %).

[13] = tested on: Triticum aestivum; assay: as above
Protocol: as §1, with “plants.” for “plants. Tables A1 to A16 below show the efficacies of selected compounds of the general formula (I) according to tables I.1 to I.50 on various harmful plants and an application rate corresponding to 80 g/ha or lower that were obtained by the aforementioned trial method.”
as §2, §3

[14] = tested on: Matricaria inodora; assay: Herbicidal action pre-emergence, greenhouse pot test
Text: Seeds of mono- and dicotyledonous weeds and crop plants were laid out in plastic or organic plant pots and covered with soil. The compounds of the invention formulated in the form of wettable powders (WP) or as emulsion concentrates (EC) were then applied to the surface of the covering soil as an aqueous suspension or emulsion with addition of 0.5% additive at a water application rate equivalent to 600 L/ha. After the treatment, the pots were placed in a greenhouse and kept under good growth conditions for the test plants. After about 3 weeks, the efficacy of the preparations was scored visually as a percentage by comparison with untreated controls. For example, 100% efficacy=plants have died. 0% efficacy=like control plants. Tables B1 to B17 below show the efficacies of selected compounds of the general formula (I) […] aforementioned trial method.

[15] = tested on: Pharbitis purpurea; assay: as above
Text: (§4) Seeds of mono- and dicotyledonous weeds and crop plants were laid out in plastic or organic plant pots and covered with soil. The compounds of the invention formulated in the form of wettable powders (WP) or as emulsion concentrates (EC) were then applied to the surface of the covering soil as an aqueous suspension or emulsion with addition of 0.5% additive at a water application rate equivalent to 600 L/ha. After the treatment, the pots were placed in a greenhouse and kept under good growth conditions for the test plants. After about 3 weeks, the efficacy of the preparations was scored visually as a percentage by comparison with untreated controls. For example, 100% efficacy=plants have died. 0% efficacy=like control plants. Tables B1 to B17 below show the efficacies of selected compounds of the general formula (I) according to tables I.1 to I.50 on various harmful plants and an application rate corresponding to 320 g/ha or lower that were obtained by the aforementioned trial method.

[16] = tested on: Amaranthus retroflexus; assay: as above
Text: as §4

[17] = tested on: Alopecurus myosuroides; assay: as above; settings: application rate 320 g/ha
Text: as §4

[18] = tested on: Stellaria media; assay: as above
Text: as §4

[19] = tested on: Hordeum murinum; assay: as above; settings: application rate 320 g/ha
Text: as §4

[20] = tested on: Abutilon theophrasti; assay: as above
Text: as §4

[21] = tested on: Veronica persica; assay: as above
Text: as §4

[22] = tested on: Polygonum convolvulus; assay: as above
Text: as §4

[23] = tested on: Lolium rigidum; assay: as above
Text: as §4

[24] = tested on: Echinochloa crus-galli; assay: as above; settings: application rate 320 g/ha
Text: as §4

[25] = tested on: Viola tricolor; assay: as above
Text: as §4

[26] = tested on: Setaria viridis; assay: as above
Text: as §4

[27] = tested on: Alopecurus myosuroides; assay: Herbicidal action post-emergence, greenhouse pot test; settings: application rate 80 g/ha, scored visually after about 3 weeks vs untreated controls
Protocol: as §1

[28] = tested on: Avena fatua; assay: Herbicidal action pre-emergence, greenhouse pot test; settings: application rate 320 g/ha
Text: as §4

[29] = tested on: Oryza sativa; assay: Crop compatibility post-emergence, greenhouse pot test
Protocol: as §1, with “plants.” for “plants. Tables A1 to A16 below show the efficacies of selected compounds of the general formula (I) according to tables I.1 to I.50 on various harmful plants and an application rate corresponding to 80 g/ha or lower that were obtained by the aforementioned trial method.”
as §2, §3

SMILES	Pharbitis purpurea (Efficacy in %) [1] [%]	Stellaria media (Efficacy in %) [3] [%]	Abutilon theophrasti (Efficacy in %) [4] [%]	Veronica persica (Efficacy in %) [5] [%]	Matricaria inodora (Efficacy in %) [6] [%]	Polygonum convolvulus (Efficacy in %) [7] [%]	Echinochloa crus-galli (Efficacy in %) [9] [%]	Setaria viridis (Efficacy in %) ([11]; application rate 80 g/ha) [%]	Matricaria inodora (Efficacy in %) ([14]; application rate 320 g/ha) [%]	Pharbitis purpurea (Efficacy in %) ([15]; application rate 320 g/ha) [%]	Alopecurus myosuroides (Efficacy in %) [17] [%]	Stellaria media (Efficacy in %) ([18]; application rate 320 g/ha) [%]	Hordeum murinum (Efficacy in %) [19] [%]	Abutilon theophrasti (Efficacy in %) ([20]; application rate 320 g/ha) [%]	Veronica persica (Efficacy in %) ([21]; application rate 320 g/ha) [%]	Polygonum convolvulus (Efficacy in %) ([22]; application rate 320 g/ha) [%]	Lolium rigidum (Efficacy in %) ([23]; application rate 320 g/ha) [%]	Echinochloa crus-galli (Efficacy in %) [24] [%]	Viola tricolor (Efficacy in %) ([25]; application rate 320 g/ha) [%]	Setaria viridis (Efficacy in %) ([26]; application rate 320 g/ha) [%]	other results
CC(Sc1cc(-n2c(=O)cc(C(F)(F)F)n(C)c2=O)c(F)cc1Cl)C(=O)OCCC(=O)O (centres unmarked) [I.1-1]	100	100	100	100	100	100	100	100	100	100	100	100	90	100	100	100	100	100	100	100	Amaranthus retroflexus (Efficacy in %) ([2]; application rate 20 g/ha): 100%; Lolium rigidum (Efficacy in %) [8]: 80%; Viola tricolor (Efficacy in %) ([10]; application rate 80 g/ha): 100%; Zea mays (Efficacy in %) ([12]; application rate 5 g/ha): 10%; Triticum aestivum (Efficacy in %) ([13]; application rate 80 g/ha): 20%; Amaranthus retroflexus (Efficacy in %) ([16]; application rate 20 g/ha): 100%
CCOC(=O)CC(C)OC(=O)C(C)Sc1cc(-n2c(=O)cc(C(F)(F)F)n(C)c2=O)c(F)cc1Cl (centres unmarked) [I.1-23]	100	100	100	100	100	100	100	100	–	–	100	–	100	–	–	–	–	100	–	–	Amaranthus retroflexus (Efficacy in %) ([2]; application rate 80 g/ha): 100%; Alopecurus myosuroides (Efficacy in %) [27]: 90%; Lolium rigidum (Efficacy in %) [8]: 90%; Viola tricolor (Efficacy in %) ([10]; application rate 20 g/ha): 100%; Triticum aestivum (Efficacy in %) ([13]; application rate 20 g/ha): 20%; Matricaria inodora (Efficacy in %) ([14]; application rate 800 g/ha): 100%; Pharbitis purpurea (Efficacy in %) ([15]; application rate 80 g/ha): 100%; Amaranthus retroflexus (Efficacy in %) ([16]; application rate 80 g/ha): 100%; Avena fatua (Efficacy in %) [28]: 100%; Stellaria media (Efficacy in %) ([18]; application rate 80 g/ha): 100%; Abutilon theophrasti (Efficacy in %) ([20]; application rate 80 g/ha): 100%; Veronica persica (Efficacy in %) ([21]; application rate 80 g/ha): 100%; Polygonum convolvulus (Efficacy in %) ([22]; application rate 80 g/ha): 100%; Lolium rigidum (Efficacy in %) ([23]; application rate 80 g/ha): 100%; Viola tricolor (Efficacy in %) ([25]; application rate 80 g/ha): 100%; Setaria viridis (Efficacy in %) ([26]; application rate 80 g/ha): 100%
COC(=O)C(C)(C)OC(=O)C(C)Sc1cc(-n2c(=O)cc(C(F)(F)F)n(C)c2=O)c(F)cc1Cl (centres unmarked) [I.1-132]	100	100	100	100	90	100	100	100	100	100	100	100	80	100	100	100	100	100	100	100	Amaranthus retroflexus (Efficacy in %) ([2]; application rate 80 g/ha): 100%; Alopecurus myosuroides (Efficacy in %) [27]: 80%; Zea mays (Efficacy in %) ([12]; application rate 20 g/ha): 20%; Oryza sativa (Efficacy in %) ([29]; application rate 80 g/ha): 20%; Triticum aestivum (Efficacy in %) ([13]; application rate 20 g/ha): 10%; Amaranthus retroflexus (Efficacy in %) ([16]; application rate 80 g/ha): 100%; Avena fatua (Efficacy in %) [28]: 90%
CC(Sc1cc(-n2c(=O)cc(C(F)(F)F)n(C)c2=O)c(F)cc1Cl)C(=O)OC1CCOC1=O (centres unmarked) [I.1-141]	100	100	100	100	100	100	100	–	100	100	80	100	100	100	100	100	100	100	100	100	Amaranthus retroflexus (Efficacy in %) ([2]; application rate 80 g/ha): 100%; Alopecurus myosuroides (Efficacy in %) [27]: 90%; Setaria viridis (Efficacy in %) ([11]; application rate 20 g/ha): 100%; Zea mays (Efficacy in %) ([12]; application rate 5 g/ha): 10%; Oryza sativa (Efficacy in %) ([29]; application rate 20 g/ha): 0%; Triticum aestivum (Efficacy in %) ([13]; application rate 20 g/ha): 20%; Amaranthus retroflexus (Efficacy in %) ([16]; application rate 80 g/ha): 100%; Avena fatua (Efficacy in %) [28]: 80%
CC(Sc1cc(-n2c(=O)cc(C(F)(F)F)n(C)c2=O)c(F)cc1Cl)C(=O)OCCC(N)=O (centres unmarked) [I.1-151]	100	90	100	100	100	100	100	100	100	100	–	100	80	100	100	100	90	100	100	100	Amaranthus retroflexus (Efficacy in %) ([2]; application rate 80 g/ha): 100%; Alopecurus myosuroides (Efficacy in %) [27]: 90%; Viola tricolor (Efficacy in %) ([10]; application rate 80 g/ha): 100%; Zea mays (Efficacy in %) ([12]; application rate 5 g/ha): 20%; Oryza sativa (Efficacy in %) ([29]; application rate 20 g/ha): 10%; Triticum aestivum (Efficacy in %) ([13]; application rate 80 g/ha): 20%; Amaranthus retroflexus (Efficacy in %) ([16]; application rate 80 g/ha): 100%; Avena fatua (Efficacy in %) [28]: 90%
